The text below walks through data of patent US20120225417A1, “Methods, Compositions and Kits for the Evaluation and Preservation of Sperm” (I'Alliance Boviteq Inc., priority 2011, published 2012).

The structures appear in SMILES notation.

Experiment [1] relates to 3′-5′ cAMP-PDE activity in human seminal plasma. Kind of experiment: 3′-5′ cAMP-PDE assay with family-specific PDE inhibitors in human seminal plasma. Format: biochemical. The following applies: fresh human seminal plasma; Rolipram 10 μM, Papaverine 400 nM (FIG. 19). The protocol:
A certain amount of complete ejaculate was kept to isolate spermatozoa from seminal plasma. This portion was centrifuged at 400×g during 10 minutes at room temperature to gently pull down spermatozoa. Supernatant was transferred and centrifuged again at 6 000×g at 4° C. during 20 minutes to pull down any remaining spermatozoa. Supernatant was then transferred and centrifuged at 6 000×g at 4° C. during 20 minutes to remove any remaining debris. SP samples were kept on ice until used for PDE assay and stored at -80° C. for further characterization. The cAMP enzymatic assay (PDE assay) was conducted as previously described ([…]. et al., (2006). BMC developmental biology 6, 47). […] J. et al., (1979). Adv Cyclic Nucleotide Res 10, 69-92) with minor modifications. […] Measurements were also performed in the presence of PDE inhibitors: […] Cilostamide and Rolipram were purchased from Biomol. […] Each PDE assay was performed in triplicate for each experiment and each experiment was repeated at least three times. As described ([…]. et al., (2009). […] IBMX-sensitive PDE5 and PDE6 and IBMX-insensitive PDE9 activities are absent from these groups because cGMP is the specific substrate and then are not detected in the cAMP-PDE assay. […] J Dairy Sci 92, 3757-3765; […]., et al. (2007). Endocrinology 148, 1858-1867; Siuciak, J. A. et al., (2006). Neuropharmacology 51, 386-396).

Experiment [2] relates to 3′-5′ cAMP-PDE activity in bovine spermatozoa. Kind of experiment: 3′-5′ cAMP-PDE assay with family-specific PDE inhibitors in bovine spermatozoa. It is filed as biochemical. As to conditions: for Percentage of sensitive PDE activity, Cryo (B): cryopreserved bovine spermatozoa; for Percentage of sensitive PDE activity, Cryo (B) / Percentage of sensitive PDE activity, Fresh (A): Cil 10 μM, Rol 10 μM, Papa 400 nM. The protocol:
The semen was obtained from different Holstein bulls. The fresh ejaculated semen was kept in an insulated thermos flask, at 18° C., during transportation to the laboratory and processed within 3 hours after collection. The cryopreserved semen was obtained at the Centre d'Insémination […] du Québec (CIAQ) […]. The cryopreserved straws of semen were prepared according to CIAQ procedures. […] After cutting one end of the straw the semen was collected in a 15 ml falcon while cutting the other end. From this point fresh and cryopreserved semen were processed similarly. Approximately 50 μL of the semen was added to 5 mL of Talp-BSA medium in a 15 mL falcon tube to wash the spermatozoa. After centrifugation (280×g, 10 min, room temperature), the remaining pellet of approximately 100 μL was resuspended in Talp-BSA medium (500 μl for the fresh and 200 μl for two straws) to reach a concentration of 1×10^6 cells/10 μL. The samples were then vortex-agitated for 30 sec and kept on the ice until ready to run the assay. The concentration of sperm cells was measured according to hemacytometer method. The cAMP enzymatic assay (PDE assay) was conducted as previously described ([…]. et al., (2006). […] J. et al., (1979). Adv Cyclic Nucleotide Res 10, 69-92) with minor modifications. […] Measurements were also performed in the presence of PDE inhibitors: […] Cilostamide and Rolipram were purchased from Biomol. […] Each PDE assay was performed in triplicate for each experiment and each experiment was repeated at least three times. As described ([…]. et al., (2009). […] IBMX-sensitive PDE5 and PDE6 and IBMX-insensitive PDE9 activities are absent from these groups because cGMP is the specific substrate and then are not detected in the cAMP-PDE assay. […] J Dairy Sci 92, 3757-3765; […]., et al. (2007). Endocrinology 148, 1858-1867; Siuciak, J. A. et al., (2006). Neuropharmacology 51, 386-396).

With `COc1ccc(Cc2nccc3cc(OC)c(OC)cc23)cc1OC` [Papaverine], in experiment [1], the “Inhibitor-sensitive PDE activity in human seminal plasma (in words)” value is “low percentage”. Also, the “Percentage of family specific sensitive PDE activity, 3 h Egg yolk” value in experiment [2] (bovine spermatozoa after 3 h in egg yolk based cryoprotectant at 18° C.) is 60%. The “Percentage of family specific sensitive PDE activity, 3 h Liquid semen” value in experiment [2] (bovine spermatozoa after 3 h in liquid semen extender at 18° C.) was determined as 56%. For the same compound, in experiment [2] (bovine spermatozoa after 3 h in seminal plasma at 4° C.), the “Percentage of family specific sensitive PDE activity, 3 h 4° C.” value was determined as 60%. In addition, the “Percentage of family specific sensitive PDE activity, 3 h 18° C.” value in experiment [2] (bovine spermatozoa after 3 h in seminal plasma at 18° C.) worked out at 59%. The “Percentage of family specific sensitive PDE activity, Fresh” value in experiment [2] (bovine spermatozoa rapidly after ejaculation (0 h)) worked out at 57%. For the same compound, the “Percentage of total PDE activity sensitive to the inhibitor” value in experiment [2] (bovine spermatozoa, 1 μM cAMP, IBMX 1 mM, cilostamide 10 μM, rolipram 10 μM, papaverine 400 nM (FIG. 12B)) is recorded as 55%. Also, the “Percentage of sensitive PDE activity, Cryo (B)” value was 50% in experiment [2] (IBMX 1 mM) and 49.8% in experiment [2] (IBMX 1 mM, listed as papaverine). For the same compound, the “Share of 3′-5′ cAMP-PDE activity inhibited (papaverine-sensitive)” value in experiment [2] (freshly ejaculated bovine spermatozoa, papaverine 400 nM (FIG. 21)) was “more than 50%”. The “Percentage of sensitive PDE activity, Fresh (A)” value worked out at 57% in experiment [2] (freshly ejaculated bovine spermatozoa, IBMX 1 mM) and 57.1% in experiment [2] (freshly ejaculated bovine spermatozoa, IBMX 1 mM, listed as papaverine).
